“Also recorded” adds a separate entry of the source.

The record followed here is patent publication US12667584B2, “Adenosine analog and its use in regulating the circadian clock” (NATIONAL INSTITUTE OF BIOLOGICAL SCIENCES, BEIJING, priority 2017, dated 2026).

Series [1] can be described thus: HPLC-MASS analysis of CSF after tail vein injection. The class given is in vivo, rat. As to conditions: 15 mg/kg tail vein. How it is done: HPLC-MASS analysis CSF: 8 W SD rats are bought from Beijing Vital River, housed in individually cage in a temperature- and humidity-controlled SPF facility, with ad libitum access to food and water. The animals were entrained under 12 h light/dark photoperiod for two weeks to synchronize the endogenous circadian clock of the mice to the ambient light-dark cycle, light intensity is about 50˜100 lux. […] Finally, each 450 μl supernatant was collected into a new 1.5 ml tube, dried with SpeedVac and analyzed with HPLC-MASS facility.
To test whether cordycepin function in vivo, we firstly tested luciferase signal level by live imaging of Per2:LUC mice after intraperitoneal injection of 15 mg/kg cordycepin or DMSO. […] Prior evaluation the jet-leg cure ability of cordycepin, we detected whether cordycepin and it's prodrug pro-CA03 can penetrate BBB. We injected cordycepin or pro-CA03 via tail vein and time course sampled CSF and analyzed cordycepin pro-CA03 level with HPLC-MASS method. […] Finally we evaluated the jet-leg cure ability of cordycepin, pro-CA03 and Pro-CA04 with mice behavioral experiment. […]

Series [2] concerns PER2 locus. The series can be described thus: ChIP-qPCR analysis for the PER2 locus. The class given is cell-based. The method, then:
Human and mouse circadian oscillators are driven by interlocked transcriptional and translational feedback loop. Bmal1 and Clock are transcriptional factors and function as positive arm to active negative arm genes transcription, including Per and Cry. Per and Cry are transcriptional repressor and feedback repress Bmal1/Clock's transcription activity thereby inhibit its own transcription. […] We also confirmed this by ChIP-qPCR experiments. Cordycepin treatment 30 min immediately release Cry1/2 and Ruvbl2 binding at Per2 gene promoter.

Series [3] concerns SCN culture slice. The series can be described thus: Ex vivo SCN slice culture from Per2::LUC mice, lumicycle. Format: cell-based, mouse. From the text:
Tissue culture, drug treatment and Real-Time Monitoring of Circadian Oscillations: 8 week-old male mPer2 Luciferase knockin mice were Sacrificed cervical dislocation. Then wipe the skin and neck with cotton containing 70% ethanol in a sterile hood. For SCN slice culture, firstly remove the eye balls from the head with scissors, decapitate and cut the skin. Then open the skull, remove all bone until the olfactory bulbs can be seen, cut the optic nerve between the olfactory bulbs and the hemispheres, and finally harvest the whole brain into ice cold HBSS. Trim the brain in HBSS by removing the cerebellum and olfactory bulbs. Attach the brain to a sample tray by glue with the rostral tip upwards and ventral surface closest to the cutting blade, then immediately fill the tray with ice cold HBSS and set the tray to the vibratome. Set the vibratome frequency at the maximum and the speed to the medium. To reach the SCN area quickly, the start cutting off thicker sections should be 500-800 μm. Reduce the sections thicker to 100 μm when the optic chiasm becomes wider. When the two SCN nuclei start to appear, collect the slice with transfer pipettes and check slices under dissecting microscope. […] Data was extract and analyzed with LumiCycle Analysis software. […]

Take `Nc1ncnc2c1ncn2[C@@H]1O[C@H](CO)C[C@H]1O` [Cordycepin, 3′-deoxy-adenosine]: the “time of peak concentration in CSF after injection” value in series [1] came out at 1 min. Also, in series [2], the “binding of BMAL1 at PER2 locus” value is “remained unchanged” and the “binding of CRY2/RUVBL2 at PER2 locus” value is reported as “released”. Moreover, the “clock phase of SCN slice” value in series [3] is “significant phase-shift with lower amplitude; also recorded: totally antiphase”.
